Measurements reported in patent US20230248626A1, “Compositions Comprising (Bio)-Alkanediols” (Symrise AG, priority 0001, published 2023).
Values after ≈ are worked out from the molar mass of the structure shown. Read-outs that look alike come from different tables or passages of the source. Blank lines part the entries; values can stand above or below the molecule they belong to.

What was measured:
Assay type in all cases: cell-based
[1] = test system: Anaerococcus octavius; assay: MIC test (growth inhibition, 96 well plates, OD)
Experimental: (§1) The MIC test is a test on growth inhibition. Estimation of Minimum Inhibitory Concentration (MIC) is executed in 96 well plates. Through the comparison of bacterial growth with positive and negative controls via optical density (OD), different concentrations of given test substances are evaluated.
(§2) Bacteria are cultivated under adjusted conditions based on information of the German Collection of Microorganisms and Cell Cultures (DSMZ) and stored in 50% Glycerol prior to use. Afterwards, the following method was applied: Adding growth medium (according to microorganism) to each well of the microplate. Adding the test-substances in different concentrations, positive controls (water controls only with medium) and negative controls (benchmarks according to organism). Adding the microorganism in a concentration of 10^6 CFU/ml (CFU=colony forming units). Incubation of the microplates at appropriate conditions.
(§3) According to resulting growth, substance concentrations are labelled either as inhibiting or not and MIC is defined as the lowest concentration where a complete growth inhibition is visible. Experiments at concentration limits (highest concentration labelled as growth and lowest concentration labelled as inhibiting) are performed at least twice.

[2] = test system: Corynebacterium xerosis; assay: MIC test (growth inhibition, 96 well plates, OD)
Experimental: as §1, §2, §3

[3] = test system: Corynebacterium jeikeium; assay: MIC test (growth inhibition, 96 well plates, OD); details: read-out: Minimum Inhibitory Concentration (MIC)
Experimental: as §1, §2, §3

[4] = test system: Propionibacterium acnes; assay: MIC test (growth inhibition, 96 well plates, OD); details: Cutibacterium acnes; read-out: Minimum Inhibitory Concentration (MIC)
Experimental: as §1, §2, §3

[5] = test system: Escherichia coli; assay: MIC test (growth inhibition, 96 well plates, OD); details: read-out: Minimum Inhibitory Concentration (MIC)
Experimental: as §1, §2, §3

[6] = test system: Staphylococcus hominis; assay: MIC test (growth inhibition, 96 well plates, OD); details: read-out: Minimum Inhibitory Concentration (MIC)
Experimental: as §1, §2, §3

[7] = test system: Staphylococcus epidermidis; assay: MIC test (growth inhibition, 96 well plates, OD)
Experimental: as §1, §2, §3

[8] = test system: Staphylococcus aureus; assay: MIC test (growth inhibition, 96 well plates, OD); details: read-out: Minimum Inhibitory Concentration (MIC)
Experimental: as §1, §2, §3

[9] = test system: Candida albicans; assay: MIC test (growth inhibition, 96 well plates, OD); details: read-out: Minimum Inhibitory Concentration (MIC)
Experimental: as §1, §2, §3

[10] = test system: Aspergillus niger; assay: MIC test (growth inhibition, 96 well plates, OD)
Experimental: as §1, §2, §3

[11] = test system: Staphylococcus aureus (SA); assay: Preservation efficacy test (PET), European Pharmacopoeia 5.1.3
Experimental: (§4) The preservation efficacy test (PET) was performed in accordance with European Pharmacopoeia § 5.1.3: The test is a reference European Pharmacopoeia method, that is to be used to evaluate the preservation system of a cosmetic or pharmaceutical preparation. The test consists of challenging the preparation under test, with prescribed inoculums of suitable microorganisms. The preservation porperties of the preparation are adequate if, in the conditions of the test, there is a significant fall or no increase, as appropriate, in the number of microorganisms in the inoculated preparations after the time prescribed.
(§5) The test microorganisms which were used, are the following:
(§6) Pseudomonas aeruginosa (PA) (bacterium); Staphylococcus aureus (SA) (bacterium); Escherichia coli (EC) (bacterium); Candida albicans (CA) (yeast); and Aspergillus brasiliensis (AB) (fungus).

[12] = test system: Aspergillus brasiliensis (AB); assay: as above
Experimental: as §4, §5, §6

[13] = test system: Escherichia coli (EC); assay: as above
Experimental: as §4, §5, §6

[14] = test system: Candida albicans (CA); assay: as above
Experimental: as §4, §5, §6

[15] = test system: Pseudomonas aeruginosa (PA); assay: as above
Experimental: as §4, §5, §6

[16] = test system: Aspergillus brasiliensis; assay: MIC and Kull synergy index of 1,2-/2,3-alkanediol mixtures
[17] = test system: human sebaceous glands; assay: Sebum production of micro-dissected, cultured human sebaceous glands (lipids/proteins after six days); design: sebum reduction: concentration or dose not given beside the values; details: for sebum reduction: compared to untreated control, six days, single donor (FIG. 4)
Experimental: Additional tests were performed with human sebaceous glands in order to verify the modulatory activity of different 1,2-alkanediols and 2,3-alkanediols on sebum secretion. Several microbial species on the skin are lipid dependent and feed on the human sebum (e.g. Corynebacterium, Propionibacterium). Accordingly, sebum reduction can indirectly support the reduction of microorganisms on the skin and in this way also indirectly support e.g. dandruff or acne reduction.
For these experiments sebaceous glands had been micro-dissected and cultured with medium. The medium without any supplement served as untreated control. Medium with 5 μM Capsaicin served as positive control. Additionally, culture medium was supplemented with different concentrations of alkanediols. After six days the sebaceous glands were collected and lipids and proteins quantified. The total lipid amount being representative of sebum production was obtained by normalizing the quantified lipids upon the quantified proteins (i.e. mg of lipids/mg of proteins).

- MIC [1]: 1000 µg/mL (≈ 6.24 mM)
- MIC [2]: 2500 µg/mL (≈ 15.6 mM)
- MIC [3]: 2500 µg/mL (≈ 15.6 mM)
- MIC [4]: 1000 µg/mL (≈ 6.24 mM)
- MIC [5]: 500 µg/mL (≈ 3.12 mM)
- MIC [6]: 1000 µg/mL (≈ 6.24 mM)
- MIC [7]: 1000 µg/mL (≈ 6.24 mM)
- MIC [8]: 1000 µg/mL (≈ 6.24 mM)
- MIC [9]: 1000 µg/mL (≈ 6.24 mM)
- MIC [10]: 2500 µg/mL (≈ 15.6 mM)
- MIC ([16]; single 1,2-alkanediol, read-out: MIC Component A): 500 µg/mL
Structure (SMILES): CCCCCCCC(O)CO (centres unmarked) [1,2-nonanediol]
- number of microorganisms after 2 days ([11]; 0.1% in o/w emulsion): 2,300
- number of microorganisms after 7 days ([11]; 0.1% in o/w emulsion): 1
- number of microorganisms after 14 days ([11]; 0.1% in o/w emulsion): 1
- number of microorganisms after 28 days ([11]; 0.1% in o/w emulsion): 1
- number of microorganisms after 2 days ([12]; 0.1% in o/w emulsion): 2,300,000
- number of microorganisms after 7 days ([12]; 0.1% in o/w emulsion): 1,300,000
- number of microorganisms after 14 days ([12]; 0.1% in o/w emulsion): 1,200,000
- number of microorganisms after 28 days ([12]; 0.1% in o/w emulsion): 900,000
- number of microorganisms after 2 days ([13]; 0.1% in o/w emulsion): 6,700
- number of microorganisms after 7 days ([13]; 0.1% in o/w emulsion): 1
- number of microorganisms after 14 days ([13]; 0.1% in o/w emulsion): 1
- number of microorganisms after 28 days ([13]; 0.1% in o/w emulsion): 1
- number of microorganisms after 2 days ([14]; 0.1% in o/w emulsion): 1,600,000
- number of microorganisms after 7 days ([14]; 0.1% in o/w emulsion): 120,000
- number of microorganisms after 14 days ([14]; 0.1% in o/w emulsion): 890
- number of microorganisms after 28 days ([14]; 0.1% in o/w emulsion): 1
- number of microorganisms after 2 days ([15]; 0.1% in o/w emulsion): 1
- number of microorganisms after 7 days ([15]; 0.1% in o/w emulsion): 1
- number of microorganisms after 14 days ([15]; 0.1% in o/w emulsion): 1
- number of microorganisms after 28 days ([15]; 0.1% in o/w emulsion): 1
- sebum reduction [17]: 28%
- concentration dependency of sebum reduction (in words) ([17]; different donor (FIG. 5)): experimentally confirmed

- MIC [3]: 2500 µg/mL (≈ 15.6 mM)
- MIC [4]: 2500 µg/mL (≈ 15.6 mM)
- MIC [5]: 1000 µg/mL (≈ 6.24 mM)
- MIC [6]: 5000 µg/mL (≈ 31.2 mM)
- MIC [8]: 2500 µg/mL (≈ 15.6 mM)
- MIC [9]: 2500 µg/mL (≈ 15.6 mM)
- MIC ([16]; single 2,3-alkanediol, read-out: MIC Component B): 1000 µg/mL
Structure (SMILES): CCCCCCC(O)C(C)O (centres unmarked) [2,3-nonanediol]
- number of microorganisms after 2 days ([11]; 0.1% in o/w emulsion): 2,200,000
- number of microorganisms after 7 days ([11]; 0.1% in o/w emulsion): 66,000
- number of microorganisms after 14 days ([11]; 0.1% in o/w emulsion): 1
- number of microorganisms after 28 days ([11]; 0.1% in o/w emulsion): 1
- number of microorganisms after 2 days ([11]; 0.1% in shampoo): 31,000
- number of microorganisms after 7 days ([11]; 0.1% in shampoo): 200
- number of microorganisms after 14 days ([11]; 0.1% in shampoo): 1
- number of microorganisms after 28 days ([11]; 0.1% in shampoo): 1
- number of microorganisms after 2 days ([11]; 0.4% in shampoo): 1,800
- number of microorganisms after 7 days ([11]; 0.4% in shampoo): 1
- number of microorganisms after 14 days ([11]; 0.4% in shampoo): 1
- number of microorganisms after 28 days ([11]; 0.4% in shampoo): 1
- number of microorganisms after 2 days ([12]; 0.1% in o/w emulsion): 1,200,000
- number of microorganisms after 7 days ([12]; 0.1% in o/w emulsion): 1,100,000
- number of microorganisms after 14 days ([12]; 0.1% in o/w emulsion): 890,000
- number of microorganisms after 28 days ([12]; 0.1% in o/w emulsion): 1,100,000
- number of microorganisms after 2 days ([12]; 0.1% in shampoo): 1,800,000
- number of microorganisms after 7 days ([12]; 0.1% in shampoo): 2,000,000
- number of microorganisms after 14 days ([12]; 0.1% in shampoo): 680,000
- number of microorganisms after 28 days ([12]; 0.1% in shampoo): 530,000
- number of microorganisms after 2 days ([12]; 0.4% in shampoo): 2,100,000
- number of microorganisms after 7 days ([12]; 0.4% in shampoo): 1,800,000
- number of microorganisms after 14 days ([12]; 0.4% in shampoo): 1,200,000
- number of microorganisms after 28 days ([12]; 0.4% in shampoo): 1,100,000
- number of microorganisms after 2 days ([13]; 0.1% in o/w emulsion): 810,000
- number of microorganisms after 7 days ([13]; 0.1% in o/w emulsion): 27,000
- number of microorganisms after 14 days ([13]; 0.1% in o/w emulsion): 1,100
- number of microorganisms after 28 days ([13]; 0.1% in o/w emulsion): 1
- number of microorganisms after 2 days ([13]; 0.1% in shampoo): 2,300,000
- number of microorganisms after 7 days ([13]; 0.1% in shampoo): 4,200,000
- number of microorganisms after 14 days ([13]; 0.1% in shampoo): 1,800,000
- number of microorganisms after 28 days ([13]; 0.1% in shampoo): 1,100,000
- number of microorganisms after 2 days ([13]; 0.4% in shampoo): 3,200,000
- number of microorganisms after 7 days ([13]; 0.4% in shampoo): 4,200,000
- number of microorganisms after 14 days ([13]; 0.4% in shampoo): 1,300,000
- number of microorganisms after 28 days ([13]; 0.4% in shampoo): 1,400,000
- number of microorganisms after 2 days ([14]; 0.1% in o/w emulsion): 2,000,000
- number of microorganisms after 7 days ([14]; 0.1% in o/w emulsion): 2,500,000
- number of microorganisms after 14 days ([14]; 0.1% in o/w emulsion): 1,900,000
- number of microorganisms after 28 days ([14]; 0.1% in o/w emulsion): 970,000
- number of microorganisms after 2 days ([14]; 0.1% in shampoo): 110,000
- number of microorganisms after 7 days ([14]; 0.1% in shampoo): 29,000
- number of microorganisms after 14 days ([14]; 0.1% in shampoo): 870
- number of microorganisms after 28 days ([14]; 0.1% in shampoo): 1
- number of microorganisms after 2 days ([14]; 0.4% in shampoo): 68,000
- number of microorganisms after 7 days ([14]; 0.4% in shampoo): 14,000
- number of microorganisms after 14 days ([14]; 0.4% in shampoo): 690
- number of microorganisms after 28 days ([14]; 0.4% in shampoo): 1
- number of microorganisms after 2 days ([15]; 0.1% in o/w emulsion): 1
- number of microorganisms after 7 days ([15]; 0.1% in o/w emulsion): 1
- number of microorganisms after 14 days ([15]; 0.1% in o/w emulsion): 1
- number of microorganisms after 28 days ([15]; 0.1% in o/w emulsion): 1
- number of microorganisms after 2 days ([15]; 0.1% in shampoo): 160,000
- number of microorganisms after 7 days ([15]; 0.1% in shampoo): 2,000,000
- number of microorganisms after 14 days ([15]; 0.1% in shampoo): 10,000,000
- number of microorganisms after 28 days ([15]; 0.1% in shampoo): 8,800,000
- number of microorganisms after 2 days ([15]; 0.4% in shampoo): 17,000
- number of microorganisms after 7 days ([15]; 0.4% in shampoo): 1
- number of microorganisms after 14 days ([15]; 0.4% in shampoo): 1
- number of microorganisms after 28 days ([15]; 0.4% in shampoo): 1
- sebum reduction [17]: 41%
